Results as given in article PMC12332266 (Frontiers in Pharmacology, 2025).
Entries after “also recorded” stand apart in the source; their conditions may differ. Read-outs that look alike come from different tables or passages of the source.

Assays:
[1] = tested on: hiPSC-CM (iCell Cardiomyocytes^2); test: RTCA CardioECR assessment (impedance and electrophysiology parameters)
Summary of the method: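 iCell^2 cardiomyocytes on fibronectin-coated ePlates monitored continuously by impedance for cell index, beating rate and amplitude. Field potential duration and spike amplitude were recorded from day 4–6 after monolayer formation. Data were double-normalized to DMSO control and baseline, with variability given as SD.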

[2] = tested on: hiPSC-CM (iCell Cardiomyocytes^2); test: Intracellular miRNA expression by RT-qPCR in hiPSC-CM pellets after 72-hour treatment
Summary of the method: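 After 72-hour treatment and RTCA CardioECR assessment, total RNA from hiPSC-CM pellets was reverse transcribed, pre-amplified and quantified by TaqMan RT-qPCR against a 17-miRNA panel. Triplicates were pooled, so no statistical analysis was performed.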

[3] = ref extensive literature search, cited from earlier work
[4] = tested on: hiPSC-CM (iCell Cardiomyocytes^2); test: miRNA in hiPSC-CM culture media by RT-qPCR at 24, 48 and 72 h post-treatment; conditions: doxorubicin 0.1 μM, vinblastine 0.3 μM;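 further: medium RNA quantified by RT-qPCR, CT-values normalized to housekeeping miRNAs, compared against DMSO control, doses chosen from the MEC for CI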
Method: To extract total RNA from the culture media, hiPSC-CM were plated on 24-well plates by seeding 275,000 cells per mL per well. hiPSC-CM were maintained for 7 days in 200 µL of iCell^2 Maintenance Medium (iCell^2 MM; FCDI) for the 48-well ePlate and in 1 mL for 24-well plate, before drug treatment. Culture media change was performed every 2 days.
Stock solutions were diluted 1:1000 in iCell^2 MM before treatment and equilibrated at 37°C. As vehicle control, DMSO 0.1% was added to the media. Drug treatments on biological replicates (n = 3) were refreshed daily, and culture media was collected for further miRNA analysis. After 72 h, cell pellets were collected and stored at −80°C until total RNA extraction.
hiPSC-CM culture media was collected daily from 24-well plates, and centrifuged (+4°C, 11,000 rpm) for 5 min to remove cellular debris/cells. Total RNA was extracted from 300 µL of supernatant by Trizol/Chloroform phase separation and purification of total RNA by miRNeasy 96 Kit (Qiagen, Hilden, Germany). The spike-in control cel-miR-39 (Qiagen, Hilden, Germany) was used to check the quality of samples and PCR efficiency. DNase treatment (RNase-Free DNase Set (Qiagen, Hilden, Germany)) was applied according to the manufacturer’s instructions. After the RNA extraction, the same RT-qPCR protocol as for hiPSC-CM lysate was followed. Multiple unpaired t-tests were performed to compare delta CT-values (CT-values normalized to the housekeeping miRNAs) of the treatment groups to the DMSO control.
Analysis of miRNA in the culture media of hiPSC-CM treated with structural cardiotoxicants was performed at 24-, 48- and 72-hour post-treatment. […] The treatment concentrations were selected based on the MEC for CI to ensure that the preliminary evidence of cardiotoxicity in hiPSC-CMs could potentially lead to miRNA release in the culture media.

**Q.** Which “RTCA, MEC (CI)” value ([1]; hiPSC-CM, change ≥20%, Table 2) does the source give for `COc1cccc2c1C(=O)c1c(O)c3c(c(O)c1C2=O)C[C@@](O)(C(=O)CO)C[C@@H]3O[C@H]1C[C@H](N)[C@H](O)[C@H](C)O1` [Doxorubicin] here?
**A.** 0.1 µM (CI)

**Q.** What about the “Contractility Amplitude MEC” value ([1]; human, 72 h) of the same compound?
**A.** 0.1 µM

**Q.** What about the “Spike Amplitude (SA) MEC” value ([1]; human, 72 h) of the same compound?
**A.** 0.01 µM

**Q.** What about the “intracellular miRNA upregulation in hiPSC-CM, in words” value [2] of the same compound?
**A.** lowest upregulation of miRNAs was detected at the highest concentration tested

**Q.** And the “miRNAs hiPSC-CM pellet, MEC overall” value [2]?
**A.** 0.03 µM

**Q.** What about the “miRNAs upregulated at the MEC overall (hiPSC-CM pellet)” value [2] of the same compound?
**A.** miR-34a-5p, miR-146b-5p, miR-187-3p

**Q.** And the Cmax total ([3]; Supplementary Table 1)?
**A.** 1600 nM

**Q.** And the Cmax total ([3]; Table 1)?
**A.** 1600 nM

**Q.** What about the “hsa-miR-133b in culture media, in words” value ([4]; 24, 48, 72 h, arsenic trioxide 0.48 μM, milrinone 3 μM, vincristine 0.3 μM, erlotinib 7.7 μM) of the same compound?
**A.** upregulation was detected only after 72 h of treatment; also recorded: significant upregulation was observed only after 72-hour treatment

**Q.** What about the “hsa-miR-187-3p in culture media, in words” value [4] of the same compound?
**A.** detected in the culture media only following 72-hour exposure

**Q.** Which “Field Potential Duration MEC” value ([1]; human, 72 h) does the source give for `COc1cc([C@@H]2c3cc4c(cc3[C@@H](O[C@@H]3O[C@@H]5CO[C@@H](C)O[C@H]5[C@H](O)[C@H]3O)[C@H]3COC(=O)[C@H]23)OCO4)cc(OC)c1O` [Etoposide] here?
**A.** 3 µM

**Q.** What about the “Spike Amplitude (SA) MEC” value ([1]; human, 72 h) of the same compound?
**A.** 0.3 µM

**Q.** What about the “miRNAs hiPSC-CM pellet, MEC overall” value [2] of the same compound?
**A.** 0.1 µM

**Q.** And the “miRNAs upregulated at the MEC overall (hiPSC-CM pellet)” value [2]?
**A.** miR-187-3p

**Q.** What about the Cmax total ([3]; Supplementary Table 1) of the same compound?
**A.** 33400 nM

**Q.** What about the Cmax total ([3]; Table 1) of the same compound?
**A.** 33400 nM

**Q.** What does the source list for `C#Cc1cccc(Nc2ncnc3cc(OCCOC)c(OCCOC)cc23)c1` [Erlotinib]?
**A.** Beating Rate MEC ([1]; human, 72 h): 0.77 µM; Beating rate (BR) MEC ([1]; human, 72 h): 0.77 µM; RTCA, MEC (BR) ([1]; human, 72 h): 0.77 µM (BR); Spike Amplitude (SA) MEC ([1]; human, 72 h): 0.23 µM; miRNAs hiPSC-CM pellet, MEC overall [2]: 0.23 µM; miRNAs upregulated at the MEC overall (hiPSC-CM pellet) [2]: miR-1-3p, miR-21-5p, miR-34a-5p, miR-208b-3p; intracellular miRNA upregulation in hiPSC-CM, in words ([2]; human, 72 h): upregulation of three miRNAs (hsa-miR-146b-5p, hsa-miR-182-5p, hsa-miR-365a-5p); Cmax total ([3]; Supplementary Table 1): 3150 to 4800 nM; Cmax total ([3]; Table 1): 3150 to 4800 nM

**Q.** With `CCN(CC)CCNC(=O)c1c(C)[nH]c(/C=C2\C(=O)Nc3ccc(F)cc32)c1C` [Sunitinib] as the compound, how does the “Beating Rate MEC” value ([1]; hiPSC-CM, 72-hour treatment, at least 20% change, Supplementary Table 1) read?
**A.** 1 µM

**Q.** And the “Beating rate (BR) MEC” value ([1]; hiPSC-CM, 72-hour treatment, lowest concentration causing at least 20% change from baseline)?
**A.** 1 µM

**Q.** And the “RTCA, MEC (BR)” value ([1]; hiPSC-CM, change ≥20%, Table 2)?
**A.** 1 µM (BR)

**Q.** And the “Spike Amplitude (SA) MEC” value ([1]; human, 72 h)?
**A.** 0.01 µM

**Q.** What about the “miRNAs hiPSC-CM pellet, MEC overall” value ([2]; lowest concentration tested which produced miRNA upregulation (fold change ≥2), 72 h) of the same compound?
**A.** 0.01 µM

**Q.** What about the Cmax total ([3]; Supplementary Table 1) of the same compound?
**A.** 181 to 250 nM

**Q.** What about the Cmax total ([3]; Table 1) of the same compound?
**A.** 180 to 250 nM
